Reference: ChEMBL document CHEMBL3045835, “Comparative study of conventional and microwave-assisted synthesis of some Schiff bases and their potential as antimicrobial agents” (2012)
In brackets after ≈: the same amount, converted by molar mass.

Experiments:
Format in all cases: functional
Micrococcus luteus [1] = assay: Antibacterial activity against Micrococcus luteus MTCC 1538 after 24 hr by broth dilution method; settings: MTCC 1538, 24 h
Pseudomonas fluorescens [2] = assay: Antibacterial activity against Pseudomonas fluorescens MTCC 2421 at 200 ug/ml after 18 hr by cup-plate method; settings: MTCC 2421, 18 h, read-out: DIZ
Staphylococcus aureus [3] = assay: Antibacterial activity against Staphylococcus aureus MTCC 1430 at 200 ug/ml after 18 hr by cup-plate method; settings: MTCC 1430, 18 h, read-out: DIZ
Micrococcus luteus [4] = assay: Antibacterial activity against Micrococcus luteus MTCC 1538 at 1000 ug/ml after 18 hr by cup-plate method; settings: MTCC 1538, 18 h, read-out: DIZ
Aspergillus niger [5] = assay: Antifungal activity against Aspergillus niger MTCC 2546 at 1000 ug/ml after 18 hr by cup-plate method; settings: MTCC 2546, 18 h, read-out: DIZ
Micrococcus luteus [6] = assay: Antibacterial activity against Micrococcus luteus MTCC 1538 at 100 ug/ml after 18 hr by cup-plate method; settings: MTCC 1538, 18 h, read-out: DIZ
Aspergillus niger [7] = assay: Antifungal activity against Aspergillus niger MTCC 2546 after 24 hr by broth dilution method; settings: MTCC 2546, 24 h
Penicillium chrysogenum [8] = assay: Antifungal activity against Penicillium chrysogenum MTCC 161 after 24 hr by broth dilution method; settings: MTCC 161, 24 h
Micrococcus luteus [9] = assay: Antibacterial activity against Micrococcus luteus MTCC 1538 at 1500 ug/ml after 18 hr by cup-plate method; settings: MTCC 1538, 18 h, read-out: DIZ
Bacillus subtilis [10] = assay: Antibacterial activity against Bacillus subtilis MTCC 441 after 24 hr by broth dilution method; settings: MTCC 441, 24 h
Staphylococcus aureus [11] = assay: Antibacterial activity against Staphylococcus aureus MTCC 1430 at 1000 ug/ml after 18 hr by cup-plate method; settings: MTCC 1430, 18 h, read-out: DIZ
Escherichia coli [12] = assay: Antibacterial activity against Escherichia coli MTCC 1573 at 1500 ug/ml after 18 hr by cup-plate method; settings: MTCC 1573, 18 h, read-out: DIZ
Penicillium chrysogenum [13] = assay: Antifungal activity against Penicillium chrysogenum MTCC 161 at 500 ug/ml after 18 hr by cup-plate method; settings: MTCC 161, 18 h, read-out: DIZ
Pseudomonas aeruginosa [14] = assay: Antibacterial activity against Pseudomonas aeruginosa MTCC 424 at 1500 ug/ml after 18 hr by cup-plate method; settings: MTCC 424, 18 h, read-out: DIZ
Penicillium chrysogenum [15] = assay: Antifungal activity against Penicillium chrysogenum MTCC 161 at 1000 ug/ml after 18 hr by cup-plate method; settings: MTCC 161, 18 h, read-out: DIZ
Pseudomonas aeruginosa [16] = assay: Antibacterial activity against Pseudomonas aeruginosa MTCC 424 at 1000 ug/ml after 18 hr by cup-plate method; settings: MTCC 424, 18 h, read-out: DIZ
Aspergillus niger [17] = assay: Antifungal activity against Aspergillus niger MTCC 2546 at 1500 ug/ml after 18 hr by cup-plate method; settings: MTCC 2546, 18 h, read-out: DIZ
Staphylococcus aureus [18] = assay: Antibacterial activity against Staphylococcus aureus MTCC 1430 at 1500 ug/ml after 18 hr by cup-plate method; settings: MTCC 1430, 18 h, read-out: DIZ
Bacillus subtilis [19] = assay: Antibacterial activity against Bacillus subtilis MTCC 441 at 1000 ug/ml after 18 hr by cup plate method; settings: MTCC 441, 18 h, read-out: DIZ
Staphylococcus aureus [20] = assay: Antibacterial activity against Staphylococcus aureus MTCC 1430 at 100 ug/ml after 18 hr by cup-plate method; settings: MTCC 1430, 18 h, read-out: DIZ
Pseudomonas fluorescens [21] = assay: Antibacterial activity against Pseudomonas fluorescens MTCC 2421 at 1000 ug/ml after 18 hr by cup-plate method; settings: MTCC 2421, 18 h, read-out: DIZ
Bacillus subtilis [22] = assay: Antibacterial activity against Bacillus subtilis MTCC 441 at 1500 ug/ml after 18 hr by cup plate method; settings: MTCC 441, 18 h, read-out: DIZ
Aspergillus niger [23] = assay: Antifungal activity against Aspergillus niger MTCC 2546 at 500 ug/ml after 18 hr by cup-plate method; settings: MTCC 2546, 18 h, read-out: DIZ
Micrococcus luteus [24] = assay: Antibacterial activity against Micrococcus luteus MTCC 1538 at 500 ug/ml after 18 hr by cup-plate method; settings: MTCC 1538, 18 h, read-out: DIZ
Staphylococcus aureus [25] = assay: Antibacterial activity against Staphylococcus aureus MTCC 1430 at 500 ug/ml after 18 hr by cup-plate method; settings: MTCC 1430, 18 h, read-out: DIZ
Staphylococcus aureus [26] = assay: Antibacterial activity against Staphylococcus aureus MTCC 1430 after 24 hr by broth dilution method; settings: MTCC 1430, 24 h
Pseudomonas aeruginosa [27] = assay: Antibacterial activity against Pseudomonas aeruginosa MTCC 424 after 24 hr by broth dilution method; settings: MTCC 424, 24 h
Escherichia coli [28] = assay: Antibacterial activity against Escherichia coli MTCC 1573 at 1000 ug/ml after 18 hr by cup-plate method; settings: MTCC 1573, 18 h, read-out: DIZ
Bacillus pumilus [29] = assay: Antibacterial activity against Bacillus pumilus MTCC 1456 at 1500 ug/ml after 18 hr by cup-plate method; settings: MTCC 1456, 18 h, read-out: DIZ
Pseudomonas fluorescens [30] = assay: Antibacterial activity against Pseudomonas fluorescens MTCC 2421 after 24 hr by broth dilution method; settings: MTCC 2421, 24 h
Escherichia coli [31] = assay: Antibacterial activity against Escherichia coli MTCC 1573 after 24 hr by broth dilution method; settings: MTCC 1573, 24 h
Pseudomonas fluorescens [32] = assay: Antibacterial activity against Pseudomonas fluorescens MTCC 2421 at 1500 ug/ml after 18 hr by cup-plate method; settings: MTCC 2421, 18 h, read-out: DIZ
Bacillus pumilus [33] = assay: Antibacterial activity against Bacillus pumilus MTCC 1456 after 24 hr by broth dilution method; settings: MTCC 1456, 24 h
Pseudomonas fluorescens [34] = assay: Antibacterial activity against Pseudomonas fluorescens MTCC 2421 at 100 ug/ml after 18 hr by cup-plate method; settings: MTCC 2421, 18 h, read-out: DIZ
Bacillus pumilus [35] = assay: Antibacterial activity against Bacillus pumilus MTCC 1456 at 1000 ug/ml after 18 hr by cup-plate method; settings: MTCC 1456, 18 h, read-out: DIZ
Micrococcus luteus [36] = assay: Antibacterial activity against Micrococcus luteus MTCC 1538 at 200 ug/ml after 18 hr by cup-plate method; settings: MTCC 1538, 18 h, read-out: DIZ
Pseudomonas fluorescens [37] = assay: Antibacterial activity against Pseudomonas fluorescens MTCC 2421 at 500 ug/ml after 18 hr by cup-plate method; settings: MTCC 2421, 18 h, read-out: DIZ
Penicillium chrysogenum [38] = assay: Antifungal activity against Penicillium chrysogenum MTCC 161 at 1500 ug/ml after 18 hr by cup-plate method; settings: MTCC 161, 18 h, read-out: DIZ
Escherichia coli [39] = assay: Antibacterial activity against Escherichia coli MTCC 1573 at 500 ug/ml after 18 hr by cup-plate method; settings: MTCC 1573, 18 h, read-out: DIZ

Row | SMILES | MIC (Micrococcus luteus [1]) | zone of inhibition at 200 µg/mL (Pseudomonas fluorescens [2]) | zone of inhibition at 200 µg/mL (Staphylococcus aureus [3]) | zone of inhibition at 1000 µg/mL (Micrococcus luteus [4]) | zone of inhibition at 1000 µg/mL (Aspergillus niger [5]) | zone of inhibition at 100 µg/mL (Micrococcus luteus [6]) | MIC (Aspergillus niger [7]) | MIC (Penicillium chrysogenum [8]) | zone of inhibition at 1500 µg/mL (Micrococcus luteus [9]) | MIC (Bacillus subtilis [10]) | zone of inhibition at 1000 µg/mL (Staphylococcus aureus [11]) | zone of inhibition at 1500 µg/mL (Escherichia coli [12]) | zone of inhibition at 500 µg/mL (Penicillium chrysogenum [13]) | zone of inhibition at 1500 µg/mL (Pseudomonas aeruginosa [14]) | zone of inhibition at 1000 µg/mL (Penicillium chrysogenum [15]) | zone of inhibition at 1500 µg/mL (Aspergillus niger [17]) | zone of inhibition at 1500 µg/mL (Staphylococcus aureus [18]) | zone of inhibition at 100 µg/mL (Staphylococcus aureus [20]) | zone of inhibition at 1000 µg/mL (Pseudomonas fluorescens [21]) | zone of inhibition at 500 µg/mL (Aspergillus niger [23]) | also measured
1 | Clc1ccc(/N=C\c2cccc3ccccc23)cc1 | 300 mg/L (≈ 1130 µM) | 12 mm | 13 mm | 21 mm | 13 mm | 13 mm | 500 mg/L (≈ 1880 µM) | 500 mg/L (≈ 1880 µM) | 25 mm | 500 mg/L (≈ 1880 µM) | 18 mm | 17 mm | 11 mm | 14 mm | 13 mm | 15 mm | 21 mm | 11 mm | 17 mm | 11 mm | zone of inhibition at 1000 µg/mL (Pseudomonas aeruginosa [16]): 13 mm; zone of inhibition at 1000 µg/mL (Bacillus subtilis [19]): 15 mm; zone of inhibition at 1500 µg/mL (Bacillus subtilis [22]): 17 mm; zone of inhibition at 500 µg/mL (Micrococcus luteus [24]): 19 mm; zone of inhibition at 500 µg/mL (Staphylococcus aureus [25]): 15 mm; MIC (Staphylococcus aureus [26]): 400 mg/L (≈ 1510 µM); MIC (Pseudomonas aeruginosa [27]): 500 mg/L (≈ 1880 µM); zone of inhibition at 1000 µg/mL (Escherichia coli [28]): 11 mm; zone of inhibition at 1500 µg/mL (Bacillus pumilus [29]): 10 mm; MIC (Pseudomonas fluorescens [30]): 300 mg/L (≈ 1130 µM); MIC (Escherichia coli [31]): 500 mg/L (≈ 1880 µM); zone of inhibition at 1500 µg/mL (Pseudomonas fluorescens [32]): 19 mm; MIC (Bacillus pumilus [33]): 500 mg/L (≈ 1880 µM); zone of inhibition at 100 µg/mL (Pseudomonas fluorescens [34]): 11 mm; zone of inhibition at 1000 µg/mL (Bacillus pumilus [35]): 9 mm; zone of inhibition at 200 µg/mL (Micrococcus luteus [36]): 16 mm; zone of inhibition at 500 µg/mL (Pseudomonas fluorescens [37]): 14 mm; zone of inhibition at 1500 µg/mL (Penicillium chrysogenum [38]): 14 mm
2 | C(=N\c1ccccn1)/c1cccc2ccccc12 | 400 mg/L (≈ 1720 µM) | 13 mm | 12 mm | 20 mm | 13 mm | 11 mm | 500 mg/L (≈ 2150 µM) | 500 mg/L (≈ 2150 µM) | 24 mm | 500 mg/L (≈ 2150 µM) | 16 mm | 16 mm | 10 mm | 15 mm | 12 mm | 15 mm | 20 mm | 11 mm | 17 mm | 12 mm | zone of inhibition at 500 µg/mL (Escherichia coli [39]): 11 mm; zone of inhibition at 500 µg/mL (Micrococcus luteus [24]): 17 mm; zone of inhibition at 500 µg/mL (Staphylococcus aureus [25]): 14 mm; MIC (Staphylococcus aureus [26]): 400 mg/L (≈ 1720 µM); MIC (Pseudomonas aeruginosa [27]): 500 mg/L (≈ 2150 µM); zone of inhibition at 1000 µg/mL (Escherichia coli [28]): 14 mm; MIC (Pseudomonas fluorescens [30]): 300 mg/L (≈ 1290 µM); MIC (Escherichia coli [31]): 400 mg/L (≈ 1720 µM); zone of inhibition at 1500 µg/mL (Pseudomonas fluorescens [32]): 19 mm; MIC (Bacillus pumilus [33]): 500 mg/L (≈ 2150 µM); zone of inhibition at 100 µg/mL (Pseudomonas fluorescens [34]): 11 mm; zone of inhibition at 200 µg/mL (Micrococcus luteus [36]): 12 mm; zone of inhibition at 500 µg/mL (Pseudomonas fluorescens [37]): 15 mm; zone of inhibition at 1500 µg/mL (Penicillium chrysogenum [38]): 17 mm
